Experimental data taken from patent US12364709B2, “Bioavailable poly amines” (AMINEX THERAPEUTICS, INC., priority 2016, dated 2025).
Where two headings read alike, the source gives them in different places.

Assay: 28-day repeat-dose toxicity study, toxicokinetics of AMXT 1501 dicaprate
Assay type: in vivo, beagle dogs
Conditions: both sexes, beagle, dog, plasma, po
Protocol: AMXT 1501 PK parameters were calculated for all AMXT 1501 dicaprate-dosed animals for the first dose (Day 1) and last dose (Day 28).

`CCCCCCCCCCCCCCCC(=O)NCCCC[C@@H](N)C(=O)NCCCNCCCCNCCCN` [AMXT 1501 dicaprate] showed an AUC(0-t) (8 mg/kg/day, 8 mg/kg/day PO, DFMO 0, Day 1, M+F combined, read-out: AUC0-24 hr Median) of 1500 ng·h/mL, a Cmax (8 mg/kg/day, 8 mg/kg/day PO, DFMO 0, Day 1, M+F combined, read-out: Cmax Mean) of 95.6 ng/mL and a Cmax (8 mg/kg/day, 8 mg/kg/day PO, DFMO 0, Day 1, M+F combined, read-out: Cmax Median) of 115 ng/mL. For the same compound, the Tmax (8 mg/kg/day, 8 mg/kg/day PO, DFMO 0, Day 1, M+F combined, read-out: Tmax Mean) was 5.33 h, the Tmax (8 mg/kg/day, 8 mg/kg/day PO, DFMO 0, Day 1, M+F combined, read-out: Tmax Median) was 6 h and the AUC(0-t) (8 mg/kg/day, 8 mg/kg/day PO, DFMO 0, Day 28, M+F combined, read-out: AUC0-24 hr Mean) was 2210 ng·h/mL. It also gave an AUC(0-t) (8 mg/kg/day, 8 mg/kg/day PO, DFMO 0, Day 28, M+F combined, read-out: AUC0-24 hr Median) of 1690 ng·h/mL, an AUC(0-t) (8 mg/kg/day, 8 mg/kg/day PO, DFMO 0, Day 28, M+F combined, read-out: AUC0-t Mean) of 3390 ng·h/mL and an AUC(0-t) (8 mg/kg/day, 8 mg/kg/day PO, DFMO 0, Day 28, M+F combined, read-out: AUC0-t Median) of 1900 ng·h/mL. The AUC(0-inf) (8 mg/kg/day, 8 mg/kg/day PO, DFMO 0, Day 28, M+F combined, read-out: AUC0-∞ Mean) was 3440 ng·h/mL, the AUC(0-inf) (8 mg/kg/day, 8 mg/kg/day PO, DFMO 0, Day 28, M+F combined, read-out: AUC0-∞ Median) was 1930 ng·h/mL and the Cmax (8 mg/kg/day, 8 mg/kg/day PO, DFMO 0, Day 28, M+F combined, read-out: Cmax Mean) was 153 ng/mL. It also gave a Cmax (8 mg/kg/day, 8 mg/kg/day PO, DFMO 0, Day 28, M+F combined, read-out: Cmax Median) of 127 ng/mL, a Tmax (8 mg/kg/day, 8 mg/kg/day PO, DFMO 0, Day 28, M+F combined, read-out: Tmax Mean) of 4.6 h and a Tmax (8 mg/kg/day, 8 mg/kg/day PO, DFMO 0, Day 28, M+F combined, read-out: Tmax Median) of 6 h. It also gave a half-life (8 mg/kg/day, 8 mg/kg/day PO, DFMO 0, Day 28, M+F combined, read-out: t1/2 Mean (converted)) of 19.7 h, a half-life (8 mg/kg/day, 8 mg/kg/day PO, DFMO 0, Day 28, M+F combined, read-out: t1/2 Median (converted)) of 18.7 h and an AUC(0-t) (8 mg/kg/day, 8 mg/kg/day PO, DFMO 50 mg/kg/day, Day 28, M+F combined, read-out: AUC0-24 hr Mean) of 2120 ng·h/mL. The AUC(0-t) (8 mg/kg/day, 8 mg/kg/day PO, DFMO 50 mg/kg/day, Day 28, M+F combined, read-out: AUC0-24 hr Median) was 2250 ng·h/mL, the AUC(0-t) (8 mg/kg/day, 8 mg/kg/day PO, DFMO 50 mg/kg/day, Day 28, M+F combined, read-out: AUC0-t Mean) was 3010 ng·h/mL and the AUC(0-t) (8 mg/kg/day, 8 mg/kg/day PO, DFMO 50 mg/kg/day, Day 28, M+F combined, read-out: AUC0-t Median) was 2970 ng·h/mL. For the same compound, the AUC(0-inf) (8 mg/kg/day, 8 mg/kg/day PO, DFMO 50 mg/kg/day, Day 28, M+F combined, read-out: AUC0-∞ Mean) was 3070 ng·h/mL, the AUC(0-inf) (8 mg/kg/day, 8 mg/kg/day PO, DFMO 50 mg/kg/day, Day 28, M+F combined, read-out: AUC0-∞ Median) was 3020 ng·h/mL and the Cmax (8 mg/kg/day, 8 mg/kg/day PO, DFMO 50 mg/kg/day, Day 28, M+F combined, read-out: Cmax Mean) was 152 ng/mL. The Cmax (8 mg/kg/day, 8 mg/kg/day PO, DFMO 50 mg/kg/day, Day 28, M+F combined, read-out: Cmax Median) was 171 ng/mL, the Tmax (8 mg/kg/day, 8 mg/kg/day PO, DFMO 50 mg/kg/day, Day 28, M+F combined, read-out: Tmax Mean) was 6.67 h and the Tmax (8 mg/kg/day, 8 mg/kg/day PO, DFMO 50 mg/kg/day, Day 28, M+F combined, read-out: Tmax Median) was 6 h. The half-life (8 mg/kg/day, 8 mg/kg/day PO, DFMO 50 mg/kg/day, Day 28, M+F combined, read-out: t1/2 Mean (converted)) was 18 h, the half-life (8 mg/kg/day, 8 mg/kg/day PO, DFMO 50 mg/kg/day, Day 28, M+F combined, read-out: t1/2 Median (converted)) was 20.3 h and the AUC(0-t) (8 mg/kg/day, 8 mg/kg/day PO, DFMO 200 mg/kg/day, Day 1, M+F combined, read-out: AUC0-24 hr Mean) was 1470 ng·h/mL. For the same compound, the AUC(0-t) (8 mg/kg/day, 8 mg/kg/day PO, DFMO 200 mg/kg/day, Day 1, M+F combined, read-out: AUC0-24 hr Median) was 1390 ng·h/mL, the Cmax (8 mg/kg/day, 8 mg/kg/day PO, DFMO 200 mg/kg/day, Day 1, M+F combined, read-out: Cmax Mean) was 101 ng/mL and the Cmax (8 mg/kg/day, 8 mg/kg/day PO, DFMO 200 mg/kg/day, Day 1, M+F combined, read-out: Cmax Median) was 86.5 ng/mL. For the same compound, the Tmax (8 mg/kg/day, 8 mg/kg/day PO, DFMO 200 mg/kg/day, Day 1, M+F combined, read-out: Tmax Mean) was 9 h, the Tmax (8 mg/kg/day, 8 mg/kg/day PO, DFMO 200 mg/kg/day, Day 1, M+F combined, read-out: Tmax Median) was 9 h and the AUC(0-t) (16 mg/kg/day, 16 mg/kg/day PO, DFMO 0, Day 1, M+F combined, read-out: AUC0-24 hr Mean) was 2500 ng·h/mL. For the same compound, the AUC(0-t) (16 mg/kg/day, 16 mg/kg/day PO, DFMO 0, Day 1, M+F combined, read-out: AUC0-24 hr Median) was 1750 ng·h/mL, the Cmax (16 mg/kg/day, 16 mg/kg/day PO, DFMO 0, Day 1, M+F combined, read-out: Cmax Mean) was 155 ng/mL and the Cmax (16 mg/kg/day, 16 mg/kg/day PO, DFMO 0, Day 1, M+F combined, read-out: Cmax Median) was 113 ng/mL. For the same compound, the Tmax (16 mg/kg/day, 16 mg/kg/day PO, DFMO 0, Day 1, M+F combined, read-out: Tmax Mean) was 6 h, the Tmax (16 mg/kg/day, 16 mg/kg/day PO, DFMO 0, Day 1, M+F combined, read-out: Tmax Median) was 6 h and the AUC(0-t) (16 mg/kg/day, 16 mg/kg/day PO, DFMO 0, Day 28, M+F combined, read-out: AUC0-24 hr Mean) was 4590 ng·h/mL. It also gave an AUC(0-t) (16 mg/kg/day, 16 mg/kg/day PO, DFMO 0, Day 28, M+F combined, read-out: AUC0-24 hr Median) of 4890 ng·h/mL and an AUC(0-t) (16 mg/kg/day, 16 mg/kg/day PO, DFMO 0, Day 28, M+F combined, read-out: AUC0-t Mean) of 7970 ng·h/mL.
